Assays:
Type in all cases: binding
[1] = system: monoclonal anti-hcTnT antibody M11.7; experiment: ITEM-FOUR nano-ESI mass spectrometry: in-solution immune complex formation and gas-phase dissociation of M11.7 antibody–epitope peptide complexes; details: for in-solution immune complex formation with M11.7 (binding in words): nano-ESI-MS, 200 mM ammonium acetate pH 6.7
Experimental: (§1) Immune complex-containing solutions of a wild-type epitope peptide and its corresponding antibody, e.g., P11 and M7, were prepared by mixing the two components in 200 mM ammonium acetate buffer (pH 6.7), ensuring a molar excess of the epitope peptide over the antibody to achieve binding saturation. After an incubation period of one hour, the entire mixture (~3 µL) was loaded into a nano-ESI emitter and electrosprayed. The mass spectrometer was configured to transmit only ion signals with m/z values above 3850, effectively eliminating signals from the unbound peptide (Figure 1A).
(§2) Antibody–peptide mixture solutions were prepared for ITEM FOUR experiments by mixing 5 µL of one antibody working solution with one assigned peptide working solution to generate antibody to peptide molar ratios of 1:2.1 for all solutions that contained the M7 antibody. For mixture solutions containing the M11.7 or the anti-TNFα antibody, 1:13 molar ratios were prepared. Antibodies were incubated together with peptides for at least one hour at room temperature prior to analysis.
(§3) Data acquisition for ITEM-FOUR experiments was performed as described in [18] with the Synapt G2S mass spectrometer (Waters MS-Technologies, Wilmslow, UK) and with the following instrumental settings: source temperature, 40 °C; capillary voltage, 1.0–1.3 kV; sample cone voltage, 130 V; source offset voltage, 130 V; trap gas flow (argon), 8.0 mL/min; helium gas: 20 bar. All mass spectra were acquired in positive-ion mode applying a mass window of m/z 200–8000. The quadrupole analyzer was used to block transmission of lower-molecular-mass ions: M1 = 5000 with dwell time of 25% and ramp time of 25%; M2 = 5000 with dwell time of 25% and ramp time of 25%; M3 = 5000. ΔCV in the TRAP collision cell was increased stepwise as follows: 0, 2, 6, 10, 14, 18, 22, 26, 30, 34, 40, 46, 52 and 58 V. The ion mobility separation mode was not used. All acquired scans during a given collision cell voltage difference setting were integrated to obtain an averaged spectrum from which ion intensities were extracted for ITEM-FOUR calculations. Data were acquired and processed with MassLynx software version 4.1 (Waters MS-Technologies). For exact time stamps of all measurements, refer to Table S2 in the Supplement (see also the deposited raw data supplement in the PRIDE directory). All mass spectra for each ΔCV setting were smoothed using the Savitzky-Golay method. Spectra of antibody solutions and antibody–peptide mixture solutions were smoothed using 30 cycles with a 15-mass unit window at the high mass end and at the low mass end with 3 cycles and a 2-mass unit window. All measurements were recorded in duplicate. The mass spectrometric raw data have been deposited via the ProteomeXchange Consortium in the PRIDE partner repository with the dataset identifier PXD058812 [70].
(§4) The Origin Pro 2023b (64-bit, OriginLab Corporation, Northampton, MA, USA) software package with an automation script for processing multiple datasets was used to graphically plot the extracted intensities of the ion signals of all relevant molecular entities (the immune complex with two bound peptides, the immune complex with one bound peptide, free antibodies, and free peptides) against their corresponding charge state for each collision cell voltage difference (ΔCV). Subsequently, Gaussian curve fittings were performed separately for each molecular entity. […] Iterations were performed for R2 values to be at least 0.91. Apices of Gaussian curves provided the intensities and the average m/z values for each molecular species. Intensity values of individual molecular entities (educts and products) were summed and normalized. Normalized intensities of educts and products from duplicate measurements were averaged.
(§5) The number of atoms from rituximab was used because the amino acid sequences of neither the M7 nor the M11.7 antibody were disclosed. […]

[2] = system: anti-TNFα antibody; experiment: Nano-ESI-MS negative control: epitope peptide mixed with an unrelated antibody; details: 200 mM ammonium acetate pH 6.7, peptide:antibody 13:1
Experimental: Negative controls were investigated to confirm specificity of in-solution complex formations. […] To further rule out non-specific interactions for epitope peptide P11 or epitope peptide P21, either of them was separately mixed with an unrelated anti-TNFα antibody (Figures S46 and S47).
The anti-TNFα antibody stock solution (2 µg/µL) was prepared from lyophilized antibody powder (article number: MAS: 23720, ThermoFisher Scientific) and 200 mM ammonium acetate (pH 6.7).
as §2
Data acquisition for ITEM-FOUR experiments was performed as described in [18] with the Synapt G2S mass spectrometer (Waters MS-Technologies, Wilmslow, UK) and with the following instrumental settings: source temperature, 40 °C; capillary voltage, 1.0–1.3 kV; sample cone voltage, 130 V; source offset voltage, 130 V; trap gas flow (argon), 8.0 mL/min; helium gas: 20 bar. […] All measurements were recorded in duplicate. […]

[3] = system: monoclonal anti-hcTnT antibody M7; experiment: ITEM-FOUR nano-ESI mass spectrometry: in-solution immune complex formation and gas-phase dissociation of M7 antibody–epitope peptide complexes; details: for in-solution immune complex formation with M7 (binding in words): nano-ESI-MS, 200 mM ammonium acetate pH 6.7, peptide:antibody 2.1:1 (epitope series) or 13:1 (negative controls)
Experimental: as §1, §2, §3, §4, §5

[4] = apparent gas-phase dissociation constant, dimensionless number, extrapolated to ambient temperature
[5] = class by difference of normalized product ion intensities over ΔCV
[6] = pseudo thermodynamic value of gas-phase complex dissociation, Ellingham diagram read at Tamb
[7] = pseudo thermodynamic value of gas-phase complex dissociation, extrapolated to Tamb

With AEQQRIRNEREKERQ [Peptide P21] as the sequence, how does the “dx (V)” value ([1]; Boltzmann curve parameter, peptide:antibody 13:1, averaged from two acquisitions) read?
The value was 5.77 V.

What about the “KD m0g# [Ø]” value [1, 4] of the same sequence?
Its value is 0.92 Ø.

What about the “Binding Type” value [1, 5] of the same sequence?
The value was “orthodox (The differences in normalized product ion intensity values were always greater than 15 percentage points)”.

What about the “ΔCV50 (V)” value ([1]; collision cell voltage difference for 50% dissociation, Boltzmann fit, peptide:antibody 13:1, averaged from two acquisitions) of the same sequence?
Its value is 12.77 V.

What about the “Final (%)” value ([1]; normalized product ion quantity at highest applied ΔCV, peptide:antibody 13:1, 200 mM ammonium acetate pH 6.7, averaged from two acquisitions) of the same sequence?
The value was 96.29%.

What about the “Initial (%)” value ([1]; normalized product ion quantity at lowest applied ΔCV, peptide:antibody 13:1, 200 mM ammonium acetate pH 6.7, at least 1 h RT, nano-ESI, ΔCV 0-58 V, averaged from two acquisitions) of the same sequence?
The value was 56.91%.

And the “ΔGm0g#” value [1, 6]?
Its value is 0.0502 kcal/mol.

What about the “Tamb ΔSm0g#” value [1, 7] of the same sequence?
Its value is 17.28 kcal/mol.

And the “ΔHm0g#” value [1, 7]?
Its value is 17.34 kcal/mol.

And the “Slope (%/V)” value ([1]; slope of Boltzmann curve, peptide:antibody 13:1, averaged from two acquisitions)?
The value was 1.71 %/V.

What about the “in-solution immune complex formation with anti-TNFα antibody” value [2] of the same sequence?
Its value is “No immune complex signals were observed”.

What about the “in-solution immune complex formation with M7 (binding in words)” value [3] of the same sequence?
The value was “no immune complexes were detected”.

How did the “in-solution immune complex formation with M11.7 (binding in words)” value ([1]; peptide:antibody 13:1) turn out when “GPSIVHRKSFHHHHHH [His-tag peptide, unrelated His-tag peptide used as negative control, reference compound]” was run?
The value was “did not produce any immune complexes”.

What about the “in-solution immune complex formation with M7 (binding in words)” value [3] of the same sequence?
The value was “did not produce any immune complexes”.

What does the source list for LVSLKDRIERRRAER [Peptide P11]?
in-solution immune complex formation with M11.7 (binding in words) ([1]; peptide:antibody 13:1): no immune complexes were detected; in-solution immune complex formation with anti-TNFα antibody [2]: No immune complex signals were observed; dx (V) ([3]; Boltzmann curve parameter, peptide:antibody 2.1:1, averaged from two acquisitions): 6.69 V; KD m0g# [Ø] [3, 4]: 0.59 Ø; Binding Type [3, 5]: orthodox (The differences in normalized product ion intensity values were always greater than 15 percentage points); ΔCV50 (V) ([3]; collision cell voltage difference for 50% dissociation, Boltzmann fit, peptide:antibody 2.1:1, averaged from two acquisitions): 25.27 V; Final (%) ([3]; normalized product ion quantity at highest applied ΔCV, peptide:antibody 2.1:1, 200 mM ammonium acetate pH 6.7, averaged from two acquisitions): 84.36%; Initial (%) ([3]; normalized product ion quantity at lowest applied ΔCV, peptide:antibody 2.1:1, 200 mM ammonium acetate pH 6.7, at least 1 h RT, nano-ESI, ΔCV 0-58 V, averaged from two acquisitions): 56.43%; ΔGm0g# [3, 6]: 0.306 kcal/mol; Tamb ΔSm0g# [3, 7]: 9.312 kcal/mol; ΔHm0g# [3, 7]: 9.62 kcal/mol; Slope (%/V) ([3]; slope of Boltzmann curve, peptide:antibody 2.1:1, averaged from two acquisitions): 1.04 %/V
